Test results as given in patent US8740872B2, “Magnetically-targeted treatment for cardiac disorders” (The Board of Regents of the University of Oklahoma, priority 2010, dated 2014).

How the values were obtained:
[1] = in vivo; cited from earlier work
neurons = details: cited from earlier work
[2] = dog, in vivo
Protocol: In 6 other animals, 1.6 mg of NIPA-M (twice the amount of NIPA-M incorporated into one trans-coronary delivery) was directly injected into the left ventricle. NIPA-M used in these experiments was not incorporated into the hydrogel in order to simulate the greatest possible toxic challenge should the total NIPA-M dose be released instantly into the circulation from trans-coronary infusion. Serum samples before and 9.7±0.3 hours after NIPA-M injection were collected for paired analysis to assess renal and hepatic toxicity.

[3] = tested on: neurotransmitter release at the synapse; details: cited from earlier work

Compound | neuropathy following prolonged oral exposure [1] | LD50% to kill 50% neurons (neurons) [mM] | BUN/creatine ratio [2] | alanine aminotransferase (ALT) [2] [U/L] | blood urea nitrogen (BUN) [2] [mmol/L] | serum creatinine [2] [mmol/L] | duration of inhibition of neurotransmitter release at the synapse [3]
C=CC(=O)NC(C)C [NIPA-M, N-isopropyl acrylamide monomer] | induce clinical (ataxia, rotorod performance deficits) and morphological (tibial nerve degeneration) signs of neuropathy | 5 to 8 | 17.6±1.7 | 41.3±8.7 | 16.2 ± 2.9 | 0.9 ± 0.1 | 
botulinum toxin-A [BtA] |  |  |  |  |  |  | 3-6 months
